This note sets out measurements from US9334246B2, “Substituted triazines for malaria treatment and chemoprophylaxis” (The United States of America, as represented by the …, priority 2013, dated 2016).

One may read the IC50 as the midpoint of a concentration-inhibition curve. Read a high IC50 as weaker potency in that assay.

Holding throughout (assay type): cell-based, Plasmodium falciparum
The subject of one assay is P. falciparum D6. In words: Malaria SYBR Green Fluorescence Assay, D6 strain.
Another assay relates to P. falciparum W2. Briefly: Malaria SYBR Green Fluorescence Assay, W2 strain.
The test system of a further assay is P. falciparum C235. Briefly: Malaria SYBR Green Fluorescence Assay, C235 strain.
Setting [1] is: Plasmodium falciparum, SYBR Green Assay.

Values after ≈ are worked out from the molar mass of the structure shown.

Molecule `CN(CC(=O)OC(C)(C)C)c1nc(-c2ccc(Cl)cc2)nc(C(Cl)(Cl)Cl)n1` [Compound 687, CN(CC(═O)OC(C)(C)C)c1nc(nc(n1)C(Cl)(Cl)Cl)c2ccc(Cl)cc2] yielded a D6 in the assay with P. falciparum D6 (SYBR Green Assay) of 501 ng/mL. The same molecule had a W2 in the assay on P. falciparum W2 (SYBR Green Assay) of 501 ng/mL. In the assay on P. falciparum C235 (SYBR Green Assay), this molecule returned a C235 of 501 ng/mL.

`CN1CCCN(c2nc(-c3ccccc3[N+](=O)[O-])nc(C(Cl)(Cl)Cl)n2)CC1` [Cmpd 548]: the “D6 (SYBR Green Assay IC50)” value with P. falciparum D6 amounted to 0.069 µg/mL. In addition, in the assay with P. falciparum W2, the “W2 (SYBR Green Assay IC50)” value stood at 0.053 µg/mL. For the same molecule, in the assay with P. falciparum C235, the “C235 (SYBR Green Assay IC50)” value stood at 0.07 µg/mL.

`CSc1ccc(-c2nc(N3CCN(CCO)CC3)nc(C(Cl)(Cl)Cl)n2)cc1` [Cmpd 309] showed a D6 in the assay on P. falciparum D6 (SYBR Green Assay) of 188 ng/mL. Besides, the W2 in the assay on P. falciparum W2 (SYBR Green Assay) is recorded as 122 ng/mL. In the assay on P. falciparum C235 (SYBR Green Assay), this molecule gave a C235 of 438 ng/mL.

In the assay with P. falciparum D6 (SYBR Green Assay), `OCCN1CCN(c2nc(Nc3ccc(OC(F)(F)F)cc3)nc(C(Cl)(Cl)Cl)n2)CC1` [Cmpd 302] returned a D6 of 166 ng/mL. This molecule returned a W2 in the assay on P. falciparum W2 (SYBR Green Assay) of 107 ng/mL. In the assay with P. falciparum C235 (SYBR Green Assay), this molecule showed a C235 of 299 ng/mL.

The molecule `CCN(CC)CCNc1nc(-c2ccccc2OC)nc(C(Cl)(Cl)Cl)n1` [Cmpd 107] displayed a D6 in the assay on P. falciparum D6 (SYBR Green Assay) of 212 ng/mL. The same molecule came in with a W2 in the assay on P. falciparum W2 (SYBR Green Assay) of 95 ng/mL. The molecule also had a C235 in the assay with P. falciparum C235 (SYBR Green Assay) of 158 ng/mL.

For the molecule `CC(=O)N1CCN(c2nc(-c3ccc(Cl)c(Cl)c3)nc(C(Cl)(Cl)Cl)n2)CC1` [Example 3, 1-(4-(4-(3,4-dichlorophenyl)-6-(trichloromethyl)-1,3,5-triazin-2-yl)piperazin-1-yl)ethan-1-one], the IC50 in the assay with P. falciparum D6 (setting [1]) came out at 0.687 µg/mL (≈ 1.46 µM); in the assay with P. falciparum W2 (setting [1]) it was 0.198 µg/mL (≈ 0.422 µM); in the assay on P. falciparum C235 (setting [1]), 0.535 µg/mL (≈ 1.14 µM).

In the assay with P. falciparum D6 (SYBR Green Assay), `COc1ccccc1-c1nc(NCCc2ccncc2)nc(C(Cl)(Cl)Cl)n1` [Cmpd 146] showed a D6 of 539 ng/mL. The molecule further registered a W2 with P. falciparum W2 (SYBR Green Assay) of 246 ng/mL. Moreover, in the assay with P. falciparum C235 (SYBR Green Assay), the C235 was 804 ng/mL.

The molecule `COc1ccc(-c2nc(N3CCCN(C)CC3)nc(C(Cl)(Cl)Cl)n2)cc1` [Cmpd 111] gave a D6 with P. falciparum D6 (SYBR Green Assay) of 191 ng/mL. This molecule gave a W2 in the assay with P. falciparum W2 (SYBR Green Assay) of 103 ng/mL. In the assay on P. falciparum C235 (SYBR Green Assay), this molecule returned a C235 of 232 ng/mL.

In turn, `CC(C)(N)CNc1nc(Nc2ccc(OC(F)(F)F)cc2)nc(C(Cl)(Cl)Cl)n1` [Cmpd 296] gave a D6 in the assay on P. falciparum D6 (SYBR Green Assay) of 302 ng/mL. In addition, the W2 with P. falciparum W2 (SYBR Green Assay) came to 318 ng/mL. The same molecule came in with a C235 in the assay with P. falciparum C235 (SYBR Green Assay) of 460 ng/mL.

For `CC(C)N1CCC(CNc2nc(-c3ccc(-c4ccccc4)cc3)nc(C(Cl)(Cl)Cl)n2)CC1` [Cmpd 496], the “D6 (SYBR Green Assay IC50)” value in the assay with P. falciparum D6 turned out to be 0.029 µg/mL. Further, the “W2 (SYBR Green Assay IC50)” value with P. falciparum W2 came out at 0.015 µg/mL. Further, the “C235 (SYBR Green Assay IC50)” value in the assay on P. falciparum C235 was found to be 0.014 µg/mL.

For `FC(F)(F)c1cccc(-c2nc(NCCc3cnccn3)nc(C(Cl)(Cl)Cl)n2)c1` [Cmpd 539], in the assay on P. falciparum D6, the “D6 (SYBR Green Assay IC50)” value is 0.325 µg/mL. For the same molecule, the “W2 (SYBR Green Assay IC50)” value in the assay on P. falciparum W2 came out at 0.098 µg/mL. Besides, the “C235 (SYBR Green Assay IC50)” value with P. falciparum C235 stood at 0.27 µg/mL.

Molecule `ClC(Cl)(Cl)c1nc(NCCCN2CCCC2)nc(-c2ccc(-c3ccccc3)cc2)n1` [Cmpd 197] came in with a D6 with P. falciparum D6 (SYBR Green Assay) of 128 ng/mL. This molecule registered a W2 in the assay on P. falciparum W2 (SYBR Green Assay) of 105 ng/mL. In addition, the C235 with P. falciparum C235 (SYBR Green Assay) worked out at 137 ng/mL.

Turning to `CCN1CCC(CNc2nc(-c3ccccc3-c3ccc(C)cc3)nc(C(Cl)(Cl)Cl)n2)CC1` [Cmpd 259], the D6 with P. falciparum D6 (SYBR Green Assay) is listed as 162 ng/mL. The molecule further came in with a W2 in the assay with P. falciparum W2 (SYBR Green Assay) of 105 ng/mL. This molecule also gave a C235 in the assay with P. falciparum C235 (SYBR Green Assay) of 113 ng/mL.

`COc1ccccc1Nc1nc(NCCC2CCCN2C)nc(C(Cl)(Cl)Cl)n1` (stereo not drawn) [Cmpd 63] had a D6 in the assay with P. falciparum D6 (SYBR Green Assay) of 603 ng/mL. The molecule also gave a W2 in the assay on P. falciparum W2 (SYBR Green Assay) of 794 ng/mL. The molecule further came in with a C235 in the assay on P. falciparum C235 (SYBR Green Assay) of 540 ng/mL.

`Clc1cc(Cl)cc(-c2nc(NCc3ccccn3)nc(C(Cl)(Cl)Cl)n2)c1` [Cmpd 210] displayed a D6 in the assay with P. falciparum D6 (SYBR Green Assay) of 112 ng/mL. Further, the W2 with P. falciparum W2 (SYBR Green Assay) was determined as 72 ng/mL. Also, in the assay on P. falciparum C235 (SYBR Green Assay), the C235 turned out to be 78 ng/mL.

In the assay with P. falciparum D6 (SYBR Green Assay), “CSC1═CC═C(C═C1)C1═NC(═NC(NC2CCN(CC(C)C)CC2)═N1)C(Cl)(Cl)Cl [Compound 695]” yielded a D6 of 582 ng/mL. The molecule further had a W2 in the assay on P. falciparum W2 (SYBR Green Assay) of 418 ng/mL. For the same molecule, the C235 with P. falciparum C235 (SYBR Green Assay) worked out at 675 ng/mL.

Take `CN1CCN(c2nc(-c3ccccc3[N+](=O)[O-])nc(C(Cl)(Cl)Cl)n2)CC1` [Cmpd 549]: the “D6 (SYBR Green Assay IC50)” value with P. falciparum D6 turned out to be 0.503 µg/mL. Besides, in the assay with P. falciparum W2, the “W2 (SYBR Green Assay IC50)” value was determined as 0.236 µg/mL. For the same molecule, in the assay with P. falciparum C235, the “C235 (SYBR Green Assay IC50)” value came to 0.663 µg/mL.

As for “ClC(Cl)(Cl)c1ccc(cc1)c2nc(NCc3ccncc3)nc(n2)C(Cl)(Cl)Cl [Compound 652]”, in the assay with P. falciparum D6, the “D6 (SYBR Green Assay IC50)” value is 0.385 µg/mL. Besides, in the assay on P. falciparum W2, the “W2 (SYBR Green Assay IC50)” value was 0.301 µg/mL. In addition, the “C235 (SYBR Green Assay IC50)” value with P. falciparum C235 turned out to be 0.876 µg/mL.

In turn, `CC(C)(C)c1ccc(-c2nc(NCCN3CCCC3)nc(C(Cl)(Cl)Cl)n2)cc1` [Cmpd 246] showed a D6 in the assay on P. falciparum D6 (SYBR Green Assay) of 48 ng/mL. This molecule came in with a W2 in the assay on P. falciparum W2 (SYBR Green Assay) of 59 ng/mL. For the same molecule, in the assay on P. falciparum C235 (SYBR Green Assay), the C235 is recorded as 35 ng/mL.

Regarding “CN(C)CCCNc1nc(Nc2ccc(Cl)cc2)nc(n1)C(Cl)(Cl)Cl [Compound 636]”, the “D6 (SYBR Green Assay IC50)” value with P. falciparum D6 amounted to 0.016 µg/mL. For the same molecule, the “W2 (SYBR Green Assay IC50)” value with P. falciparum W2 amounted to 0.018 µg/mL. For the same molecule, the “C235 (SYBR Green Assay IC50)” value with P. falciparum C235 is 0.04 µg/mL.

As to `CN1CCC(CNc2nc(-c3ccc(S(C)(=O)=O)cc3)nc(C(Cl)(Cl)Cl)n2)CC1` [Cmpd 510], the “D6 (SYBR Green Assay IC50)” value in the assay with P. falciparum D6 was 0.416 µg/mL. Also, in the assay with P. falciparum W2, the “W2 (SYBR Green Assay IC50)” value worked out at 0.088 µg/mL. Further, the “C235 (SYBR Green Assay IC50)” value with P. falciparum C235 was 0.273 µg/mL.

`CN(CCc1ccccn1)c1nc(-c2cc(Cl)cc(Cl)c2)nc(C(Cl)(Cl)Cl)n1` [Cmpd 474]: the “D6 (SYBR Green Assay IC50)” value in the assay on P. falciparum D6 is 0.065 µg/mL. Further, the “W2 (SYBR Green Assay IC50)” value with P. falciparum W2 amounted to 0.208 µg/mL. The “C235 (SYBR Green Assay IC50)” value with P. falciparum C235 came to 0.527 µg/mL.

Consider `CSc1ccc(-c2nc(N3CCCN(CCO)CC3)nc(C(Cl)(Cl)Cl)n2)cc1` [Cmpd 457], for which the “D6 (SYBR Green Assay IC50)” value in the assay on P. falciparum D6 was found to be 0.328 µg/mL. Moreover, the “W2 (SYBR Green Assay IC50)” value with P. falciparum W2 was 0.08 µg/mL. Besides, in the assay on P. falciparum C235, the “C235 (SYBR Green Assay IC50)” value worked out at 0.168 µg/mL.

Turning to `COc1cc(OC)cc(-c2nc(NCC(C)(C)N)nc(C(Cl)(Cl)Cl)n2)c1` [Cmpd 481], in the assay with P. falciparum D6, the “D6 (SYBR Green Assay IC50)” value amounted to 0.035 µg/mL. Also, the “W2 (SYBR Green Assay IC50)” value in the assay with P. falciparum W2 amounted to 0.012 µg/mL. Also, in the assay with P. falciparum C235, the “C235 (SYBR Green Assay IC50)” value came to 0.017 µg/mL.

On to `CC(C)(C)c1ccc(-c2nc(NCc3cccnc3)nc(C(Cl)(Cl)Cl)n2)cc1` [Cmpd 158], for which, in the assay with P. falciparum D6 (SYBR Green Assay), the D6 stood at 260 ng/mL. In the assay with P. falciparum W2 (SYBR Green Assay), this molecule came in with a W2 of 92 ng/mL. The C235 with P. falciparum C235 (SYBR Green Assay) worked out at 324 ng/mL.

As to `CC(C)CN1CCC(Nc2nc(-c3cccc(Cl)c3)nc(C(Cl)(Cl)Cl)n2)CC1` [Compound 701, CC(C)CN1CCC(CC1)NC1═NC(═NC(═N1)C1═CC(Cl)═CC═C1)C(Cl)(Cl)Cl], in the assay with P. falciparum D6 (SYBR Green Assay), the D6 is listed as 282 ng/mL. The W2 in the assay with P. falciparum W2 (SYBR Green Assay) is recorded as 195 ng/mL. The molecule further had a C235 in the assay with P. falciparum C235 (SYBR Green Assay) of 351 ng/mL.

As for `COc1cccc(Cc2nc(N3CCCN(C)CC3)nc(C(Cl)(Cl)Cl)n2)c1` [Cmpd 269], the D6 in the assay with P. falciparum D6 (SYBR Green Assay) is on record as 835 ng/mL. The same molecule returned a W2 with P. falciparum W2 (SYBR Green Assay) of 286 ng/mL. Moreover, the C235 in the assay with P. falciparum C235 (SYBR Green Assay) is 627 ng/mL.

As for `COc1cc(OC)cc(-c2nc(NCC3CCN(C(C)C)CC3)nc(C(Cl)(Cl)Cl)n2)c1` [Cmpd 502], the “D6 (SYBR Green Assay IC50)” value in the assay on P. falciparum D6 worked out at 0.127 µg/mL. Besides, the “W2 (SYBR Green Assay IC50)” value with P. falciparum W2 stood at 0.028 µg/mL. Further, in the assay with P. falciparum C235, the “C235 (SYBR Green Assay IC50)” value was 0.052 µg/mL.

`Clc1cc(Cl)cc(-c2nc(NCc3cccnc3)nc(C(Cl)(Cl)Cl)n2)c1` [Cmpd 209]: in the assay on P. falciparum D6 (SYBR Green Assay), the D6 turned out to be 122 ng/mL. This molecule displayed a W2 with P. falciparum W2 (SYBR Green Assay) of 67 ng/mL. This molecule showed a C235 in the assay with P. falciparum C235 (SYBR Green Assay) of 112 ng/mL.
